According to PMC7200681, “The calcitonin-like system is an ancient regulatory system of biomineralization” (Scientific Reports, 2020):

Legend:
[1] = tested on: mussel mantle edge; assay: Ex-vivo incubation of mantle edge fragments, calcium quantification by MP-AES; set-up: species or system Mytilus galloprovincialis; settings: Verapamil 200 µM, 4 hours; data not shown
Protocol: Figure 7 Effect of the mussel calcitonin-like peptide on (A) calcium (ppm) concentration in the mantle edge and (B) calcium uptake by mantle cells of the Mediterranean mussel. (A) The quantity of calcium (ppm) present in the mantle edge after mussel CALCIIa peptide incubation was measured using a Microwave Plasma-Atomic Emission Spectrometer (MP-AES, Agilent) at 393.366 nm. A standard curve for calcium was performed before analysing the samples. In vitro mantle assays with CALCIIa peptide and with ouabain and control (culture medium and mantle) were repeated on at least 3 independent occasions. For each assay at least ten replicates were performed and the mantle edge distal to the umbo was used (one mantle fragment per replica). Prism GraphPad v5 software was used to assess the significance of differences between the groups using a One-way Anova and Tukey’s multiple comparison test. […] C - control (no peptide or ouabain); P - peptide (10 μM); O - ouabain (2 mM), OP - ouabain (2 mM) and peptide (10 μM); PreOP - pre -stimulation for 1 hour with the peptide followed by 4 hours incubation with OP. (B) Digital photographs of the mussel mantle cells in the presence (CALCIIa, 10 μM) or absence (control) of the mussel CALCIIa peptide. Calcium ions were stained with 50 mM of Calcein (green) and cell nuclei (blue) with DAPI (Acros Organics). An increase in cellular fluorescence represents an increase in calcium uptake. Fluorescence of the CALCIIa peptide stimulated cells was 1.9 times higher than the control. The average mantle cell size was 3–4 μm and fluorescent images were taken using a Leica DM IL microscope coupled to a Visicam HDMI 6 digital camera and photographs were analysed using ImageJ software (v. 1.52a) to calculate the fluorescence intensity and for image overlay. The scale bar is indicated.
The posterior mantle edge region of the Mediterranean mussel was collected and washed in culture medium. The composition of the culture medium was as described in[91] […]

[2] = tested on: mussel CALCRIIc; assay: Calcium mobilization assay (apoaequorin bioluminescence), dose-response, HEK 293 cells expressing mussel CALCRIIc; assay type: cell-based, Mytilus coruscus; settings: HEK 293/apoaequorin, 1 μM to 0.01 nM
Text: The complete sequence of the Mediterranean mussel CALCRIa was amplified using specific primers (Table 1) from cDNA of a tissue mixture (mantle, adductor muscle, gills, gonads) using a proofreading DNA polymerase (iProof BIORAD, Portugal) and cloned into the pGEMT-easy vector (PROMEGA, Spain). The Mediterranean mussel CALCRIIa transcript that was found in the mantle transcriptome was incomplete and lacked the N-terminus (by comparisons with the hard-shelled mussel homologue) and so the remaining sequence (from 1–393 bp) was deduced from the hard-shelled mussel homologue receptor and the receptor was synthesised and supplied by GENESCRIPT (USA). The complete transcripts for mussel CALCRIc, CALCRIIb and CALCRIIc were only found in the hard-shelled mussel mantle transcriptome and homologues were only found in the Mediterranean mussel genome as they were absent from the species mantle transcriptome and so they were also synthesised and supplied by GENESCRIPT (USA) using the hard-shelled mussel receptor sequences as template. […]
Mammalian cell cultures and transfections followed the methodology described by[89],[90]. […] Cell recovery was monitored daily and the medium was changed every two days until no cell death was observed. […]
(§1) HEK293 cells stably expressing five mussel receptors (CALCRIa, CALCRIc, CALCRIIa, CALCRIIb and CALCRIIc) were stimulated with the two mussel peptides and the vertebrate (human and salmon) calcitonins. Receptor activation was assessed in vitro by measuring two intracellular signalling pathways: a) production of cAMP and b) mobilization of calcium (Ca^2+). The cellular response was initially assessed using 10 μM of each peptide. […]
Stable cell lines expressing the mussel receptors were transiently co-transfected with the mitochondrial targeted apo-aequorin protein cloned in pcDNA3.1. Two days after transfection cells were washed, counted and resuspended in 1 ml of DMEM /F12 Ham (without phenol red)/0.1% BSA supplemented with 2 µM coelenterazine (SIGMA-ALDRICH). […]

[3] = tested on: mussel CALCRIa; assay: Calcium mobilization assay (apoaequorin bioluminescence), dose-response, HEK 293 cells expressing mussel CALCRIa; assay type: cell-based, Mytilus galloprovincialis; settings: for EC50: HEK 293 cells stably expressing receptor, co-transfected with apoaequorin, peptide 1 μM to 0.01 nM, three independent assays in duplicate, read-out: EC50, activation of mussel CALCRIa (intracellular calcium mobilization); for Activation of mussel CALCRIa in dose-response analysis (in words): calcium mobilization, HEK 293/apoaequorin, 1 μM to 0.01 nM
Text: (§2) The complete sequence of the Mediterranean mussel CALCRIa was amplified using specific primers (Table 1) from cDNA of a tissue mixture (mantle, adductor muscle, gills, gonads) using a proofreading DNA polymerase (iProof BIORAD, Portugal) and cloned into the pGEMT-easy vector (PROMEGA, Spain). The Mediterranean mussel CALCRIIa transcript that was found in the mantle transcriptome was incomplete and lacked the N-terminus (by comparisons with the hard-shelled mussel homologue) and so the remaining sequence (from 1–393 bp) was deduced from the hard-shelled mussel homologue receptor and the receptor was synthesised and supplied by GENESCRIPT (USA). The complete transcripts for mussel CALCRIc, CALCRIIb and CALCRIIc were only found in the hard-shelled mussel mantle transcriptome and homologues were only found in the Mediterranean mussel genome as they were absent from the species mantle transcriptome and so they were also synthesised and supplied by GENESCRIPT (USA) using the hard-shelled mussel receptor sequences as template. The mussel CALCRIb transcript was incomplete and lacked both N and C-terminal regions and it was not possible to obtain the complete transcript either by searching both mussels mantle transcriptomes or the Mediterranean mussel genome and so it was not produced. All synthetized receptors were provided in the pUC57 cloning vector by the company and receptor codon usage was optimized to favour a high level of expression in mammalian cells.
(§3) Mammalian cell cultures and transfections followed the methodology described by[89],[90]. Mammalian HEK293 cells (ECACC, UK) were used and they were maintained in complete Dulbecco’s modified Eagle’s medium (DMEM, 4.5 g/l glucose, 110 mg/l sodium pyruvate and L-glutamine, SIGMA-ALDRICH, Spain) supplemented with 10% sterile foetal bovine serum (FBS), 0.1% penicillin: streptomycin antibiotic mix (10,000 U:10 mg/ml, Sigma) and 250 μg /ml sterile filtered 1:100 amphotericin B solution (SIGMA-ALDRICH) in a humid 5% CO2 incubator (HERAEUS, Portugal) at 37 °C. On the day prior to transfection, 2–3 × 10^5 HEK293 cells were seeded on 6 well plates (SARSTEDT, Portugal) and transfected with Fugene HD transfection reagent (2 DNA: 4 Fugene ratio, PROMEGA) following the manufacturer’s protocol. Seventy-two hours after transfection, 800 μg/ml of the antibiotic Geneticin (SIGMA-ALDRICH) was added to the medium to select and isolate stable receptor cell lines. Cell recovery was monitored daily and the medium was changed every two days until no cell death was observed. […]
as §1
(§4) Stable cell lines expressing the mussel receptors were transiently co-transfected with the mitochondrial targeted apo-aequorin protein cloned in pcDNA3.1. Two days after transfection cells were washed, counted and resuspended in 1 ml of DMEM /F12 Ham (without phenol red)/0.1% BSA supplemented with 2 µM coelenterazine (SIGMA-ALDRICH). […] The injector system of the Biotek Synergy 4 microplate reader (USA) was used to inject 50 µl of the cell suspensions into wells containing 50 μl of the diluted peptide in DMEM / F12 Ham / 0.1% BSA. […]

[4] = tested on: mussel CALCRIIa; assay: Calcium mobilization assay (apoaequorin bioluminescence), dose-response, HEK 293 cells expressing mussel CALCRIIa; assay type: cell-based, Mytilus galloprovincialis; settings: for EC50: HEK 293 cells stably expressing receptor, co-transfected with apoaequorin, peptide 1 μM to 0.01 nM, three independent assays in duplicate, read-out: EC50, activation of mussel CALCRIIa (intracellular calcium mobilization); for Activation of mussel CALCRIIa in dose-response analysis (in words): calcium mobilization, HEK 293/apoaequorin, 1 μM to 0.01 nM
Text: as §2, §3, §1, §4

[5] = tested on: mussel CALCR-like (CALCRIa, CALCRIc, CALCRIIa, CALCRIIb and CALCRIIc); assay: cAMP assay in HEK 293 cells stably expressing the mussel receptors; assay type: cell-based; settings: 10 µM peptide, 30 min at 37 °C, 1 mM IBMX; % of Forskolin (10uM) response; single experiment in triplicate (Supplementary Figure 7A)
Protocol: Mammalian cell cultures and transfections followed the methodology described by[89],[90]. Mammalian HEK293 cells (ECACC, UK) were used and they were maintained in complete Dulbecco’s modified Eagle’s medium (DMEM, 4.5 g/l glucose, 110 mg/l sodium pyruvate and L-glutamine, SIGMA-ALDRICH, Spain) supplemented with 10% sterile foetal bovine serum (FBS), 0.1% penicillin: streptomycin antibiotic mix (10,000 U:10 mg/ml, Sigma) and 250 μg /ml sterile filtered 1:100 amphotericin B solution (SIGMA-ALDRICH) in a humid 5% CO2 incubator (HERAEUS, Portugal) at 37 °C. […] Cell recovery was monitored daily and the medium was changed every two days until no cell death was observed. […]
as §1
The amount of cAMP produced was determined using a competitive immunoassay with a cryptate labelled anti-cAMP antibody (CISBIO, France) and followed the methodology describe by[89],[90]. […]

COc1ccc(CCN(C)CCCC(C#N)(c2ccc(OC)c(OC)c2)C(C)C)cc1OC (stereo not shown) [Verapamil]
Calcium concentration of mantle fragments relative to the control (in words) [1]: did not change

CC[C@H](C)[C@H](NC(=O)[C@H](C)NC(=O)[C@@H](NC(=O)[C@H](CCC(N)=O)NC(=O)[C@@H]1CCCN1C(=O)[C@H](Cc1ccccc1)NC(=O)[C@@H](NC(=O)[C@H](Cc1c[nH]cn1)NC(=O)[C@H](Cc1ccccc1)NC(=O)[C@H](CCCCN)NC(=O)[C@H](CC(N)=O)NC(=O)[C@H](Cc1ccccc1)NC(=O)[C@H](CC(=O)O)NC(=O)[C@H](CCC(N)=O)NC(=O)[C@@H](NC(=O)[C@H](Cc1ccc(O)cc1)NC(=O)[C@@H](NC(=O)CNC(=O)[C@H](CC(C)C)NC(=O)[C@H](CCSC)NC(=O)[C@@H]1CSSC[C@H](N)C(=O)NCC(=O)N[C@@H](CC(N)=O)C(=O)N[C@@H](CC(C)C)C(=O)N[C@@H](CO)C(=O)N[C@@H]([C@@H](C)O)C(=O)N1)[C@@H](C)O)[C@@H](C)O)[C@@H](C)O)[C@@H](C)O)C(=O)NCC(=O)N[C@H](C(=O)NCC(=O)N[C@@H](C)C(=O)N1CCC[C@H]1C(N)=O)C(C)C [human calcitonin, calcitonin]
Activation of mussel CALCRIIc in dose-response analysis (in words) [2]: but not CALCRIIc
EC50 [3]: 9.5 nM
Activation of mussel CALCRIa in dose-response analysis (in words) [3]: activated
EC50 [4]: 500 nM
Activation of mussel CALCRIIa in dose-response analysis (in words) [4]: activated
Stimulation of all mussel receptors via the cAMP pathway (in words) [5]: stimulated

CC(C)C[C@H](NC(=O)[C@H](CCCCN)NC(=O)CNC(=O)[C@H](CC(C)C)NC(=O)[C@@H](NC(=O)[C@@H]1CSSC[C@H](N)C(=O)N[C@@H](CO)C(=O)N[C@@H](CC(N)=O)C(=O)N[C@@H](CC(C)C)C(=O)N[C@@H](CO)C(=O)N[C@@H]([C@@H](C)O)C(=O)N1)C(C)C)C(=O)N[C@@H](CO)C(=O)N[C@@H](CCC(N)=O)C(=O)N[C@@H](CCC(=O)O)C(=O)N[C@@H](CC(C)C)C(=O)N[C@@H](Cc1c[nH]cn1)C(=O)N[C@@H](CCCCN)C(=O)N[C@@H](CC(C)C)C(=O)N[C@@H](CCC(N)=O)C(=O)N[C@H](C(=O)N[C@@H](Cc1ccc(O)cc1)C(=O)N1CCC[C@H]1C(=O)N[C@@H](CCCNC(=N)N)C(=O)N[C@H](C(=O)N[C@@H](CC(N)=O)C(=O)N[C@H](C(=O)NCC(=O)N[C@@H](CO)C(=O)NCC(=O)N[C@H](C(=O)N1CCC[C@H]1C(N)=O)[C@@H](C)O)[C@@H](C)O)[C@@H](C)O)[C@@H](C)O [salmon calcitonin, calcitonin]
Activation of mussel CALCRIIc in dose-response analysis (in words) [2]: but not CALCRIIc
EC50 [3]: 5 nM
Activation of mussel CALCRIa in dose-response analysis (in words) [3]: activated
EC50 [4]: 14 nM
Activation of mussel CALCRIIa in dose-response analysis (in words) [4]: activated
Stimulation of all mussel receptors via the cAMP pathway (in words) [5]: stimulated
